Measured values as given in ChEMBL document CHEMBL1201862, “PubChem BioAssay data set” (2004).
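How tested: cells in 96-well plates exposed to compound for 48 hours at five concentrations. GI50 marks 50% less growth.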 Activity calls are given as the source filed them. Cut-off read from the data, not from the text of the source: active = GI50 up to about 1.1 µM and inactive = higher.

Assays:
Assay in all cases: growth of human tumour cells (NCI), 48 h
786-0 = test system: 786-0
CAKI-1 = test system: CAKI-1
HCC 2998 = test system: HCC 2998
HCT-116 = test system: HCT-116
HCT-15 = test system: HCT-15
HL-60 = test system: HL-60
KM12 = test system: KM12
M14 = test system: M14
MDA-MB-435 = test system: MDA-MB-435
NCI-H460 = test system: NCI-H460
NCI-H522 = test system: NCI-H522
OVCAR-5 = test system: OVCAR-5
OVCAR-8 = test system: OVCAR-8
SK-MEL-28 = test system: SK-MEL-28
SN12C = test system: SN12C
SNB-75 = test system: SNB-75
UACC-257 = test system: UACC-257
UACC-62 = test system: UACC-62
MDA-N = test system: MDA-N
SK-OV-3 = test system: SK-OV-3

CC(=O)OCC1OC(n2c3c(cc(C#N)c2=S)CCCCCC3)C(OC(C)=O)C(OC(C)=O)C1OC(C)=O (configuration not stated)
GI50 (786-0): 99.8 µM (inactive)
GI50 (CAKI-1): > 10 µM (inactive)
GI50 (HCC 2998): 27.5 µM (inactive)
GI50 (HCT-116): 37.8 µM (inactive)
GI50 (HCT-15): 97.5 µM
GI50 (HL-60): 36.2 µM (inactive)
GI50 (KM12): > 100 µM (inactive)
GI50 (M14): > 100 µM (inactive)
GI50 (MDA-MB-435): > 100 µM (inactive)
GI50 (NCI-H460): 42.2 µM (inactive)
GI50 (NCI-H522): 76.4 µM (inactive)
GI50 (OVCAR-5): > 100 µM (inactive)
GI50 (OVCAR-8): 69.8 µM (inactive)
GI50 (SK-MEL-28): > 100 µM (inactive)
GI50 (SN12C): > 100 µM (inactive)
GI50 (SNB-75): 27.2 µM (inactive)
GI50 (UACC-257): > 100 µM (inactive)
GI50 (UACC-62): 54.7 µM (inactive)

CCOC(=O)CC(c1ccccc1)C(C)(C(=O)OCC)C(=O)OCC (configuration not stated)
GI50 (786-0): > 100 µM (inactive)
GI50 (CAKI-1): > 100 µM (inactive)
GI50 (HCC 2998): > 100 µM (inactive)
GI50 (HCT-116): > 100 µM (inactive)
GI50 (HCT-15): > 100 µM
GI50 (HL-60): > 100 µM (inactive)
GI50 (KM12): > 100 µM (inactive)
GI50 (M14): > 100 µM (inactive)
GI50 (MDA-N): > 10 µM (inactive)
GI50 (NCI-H460): > 100 µM (inactive)
GI50 (NCI-H522): > 100 µM (inactive)
GI50 (OVCAR-5): > 100 µM (inactive)
GI50 (OVCAR-8): > 100 µM (inactive)
GI50 (SK-MEL-28): > 100 µM (inactive)
GI50 (SK-OV-3): > 100 µM (inactive)
GI50 (SN12C): > 100 µM (inactive)
GI50 (SNB-75): 87.3 µM (inactive)
GI50 (UACC-257): > 100 µM (inactive)
GI50 (UACC-62): > 100 µM (inactive)

CC1=C2CC(C)(C)CC(=O)C2(C)CCC1=O (configuration not stated)
GI50 (786-0): > 100 µM (inactive)
GI50 (CAKI-1): > 100 µM (inactive)
GI50 (HCC 2998): > 100 µM (inactive)
GI50 (HCT-116): > 100 µM (inactive)
GI50 (HCT-15): > 100 µM
GI50 (HL-60): > 100 µM (inactive)
GI50 (KM12): > 100 µM (inactive)
GI50 (M14): > 100 µM (inactive)
GI50 (MDA-N): > 100 µM (inactive)
GI50 (NCI-H460): > 100 µM (inactive)
GI50 (NCI-H522): > 100 µM (inactive)
GI50 (OVCAR-5): > 100 µM (inactive)
GI50 (OVCAR-8): > 100 µM (inactive)
GI50 (SK-MEL-28): > 100 µM (inactive)
GI50 (SK-OV-3): > 100 µM (inactive)
GI50 (SN12C): > 100 µM (inactive)
GI50 (SNB-75): > 100 µM (inactive)
GI50 (UACC-257): > 100 µM (inactive)
GI50 (UACC-62): > 100 µM (inactive)

CC(=O)NC(CCCOC(C)=O)C(=O)NC(CCCOC(C)=O)C(=O)NC(CCCOC(C)=O)C(=O)NC(Cc1ccc([N+](=O)[O-])cc1)C(=O)NCC(=O)OCc1ccccc1 (configuration not stated)
GI50 (786-0): > 100 µM (inactive)
GI50 (CAKI-1): > 100 µM (inactive)
GI50 (HCC 2998): > 100 µM (inactive)
GI50 (HCT-116): > 100 µM (inactive)
GI50 (HCT-15): > 100 µM
GI50 (KM12): > 100 µM (inactive)
GI50 (M14): > 100 µM (inactive)
GI50 (MDA-MB-435): > 100 µM (inactive)
GI50 (NCI-H460): > 100 µM (inactive)
GI50 (NCI-H522): > 100 µM (inactive)
GI50 (OVCAR-5): > 100 µM (inactive)
GI50 (OVCAR-8): > 100 µM (inactive)
GI50 (SK-MEL-28): > 100 µM (inactive)
GI50 (SK-OV-3): > 100 µM (inactive)
GI50 (SN12C): > 100 µM (inactive)
GI50 (SNB-75): > 100 µM (inactive)
GI50 (UACC-257): > 100 µM (inactive)
GI50 (UACC-62): > 100 µM (inactive)

CN(CCN1C(=O)c2cccc3cccc(c23)C1=O)CCN1C(=O)c2cccc3cccc(c23)C1=O
GI50 (786-0): 9.02 µM (inactive)
GI50 (CAKI-1): > 100 µM (inactive)
GI50 (HCT-116): 5.98 µM (inactive)
GI50 (HCT-15): 0.178 µM
GI50 (HL-60): 68.7 µM (inactive)
GI50 (KM12): > 100 µM (inactive)
GI50 (M14): > 100 µM (inactive)
GI50 (MDA-MB-435): > 100 µM (inactive)
GI50 (NCI-H460): 16.3 µM (inactive)
GI50 (NCI-H522): 13.2 µM (inactive)
GI50 (OVCAR-5): > 100 µM (inactive)
GI50 (OVCAR-8): 5.55 µM (inactive)
GI50 (SK-MEL-28): > 100 µM (inactive)
GI50 (SK-OV-3): 4.29 µM (inactive)
GI50 (SN12C): 76 µM (inactive)
GI50 (SNB-75): 19.2 µM (inactive)
GI50 (UACC-257): 60.1 µM (inactive)
GI50 (UACC-62): 30 µM (inactive)

COc1cc2oc(=O)cc(C)c2c(OC)c1OC(C)=O
GI50 (786-0): > 100 µM (inactive)
GI50 (HCT-116): > 100 µM (inactive)
GI50 (HCT-15): > 100 µM
GI50 (KM12): > 100 µM (inactive)
GI50 (M14): > 100 µM (inactive)
GI50 (MDA-MB-435): > 100 µM (inactive)
GI50 (MDA-N): > 100 µM (inactive)
GI50 (OVCAR-5): > 100 µM (inactive)
GI50 (OVCAR-8): > 100 µM (inactive)
GI50 (SK-MEL-28): > 100 µM (inactive)
GI50 (SK-OV-3): > 100 µM (inactive)
GI50 (SN12C): > 100 µM (inactive)
GI50 (SNB-75): > 100 µM (inactive)
GI50 (UACC-257): > 100 µM (inactive)
GI50 (UACC-62): > 100 µM (inactive)

O=C(O)CCC1(CCC(=O)O)CCCCCCCCC(CCC(=O)O)(CCC(=O)O)C(=O)C1=O
GI50 (786-0): > 100 µM (inactive)
GI50 (CAKI-1): > 100 µM (inactive)
GI50 (HCC 2998): > 100 µM (inactive)
GI50 (HCT-116): > 100 µM (inactive)
GI50 (HCT-15): > 100 µM
GI50 (HL-60): > 100 µM (inactive)
GI50 (KM12): > 100 µM (inactive)
GI50 (M14): > 100 µM (inactive)
GI50 (MDA-MB-435): > 100 µM (inactive)
GI50 (NCI-H460): > 100 µM (inactive)
GI50 (NCI-H522): > 100 µM (inactive)
GI50 (OVCAR-5): > 100 µM (inactive)
GI50 (OVCAR-8): > 100 µM (inactive)
GI50 (SK-MEL-28): > 100 µM (inactive)
GI50 (SK-OV-3): > 100 µM (inactive)
GI50 (SN12C): > 100 µM (inactive)
GI50 (SNB-75): > 100 µM (inactive)
GI50 (UACC-257): > 100 µM (inactive)
GI50 (UACC-62): > 100 µM (inactive)

Cc1ccccc1C1OC1C(=O)c1ccccc1N (configuration not stated)
GI50 (786-0): 59.4 µM (inactive)
GI50 (CAKI-1): 45.8 µM (inactive)
GI50 (HCC 2998): > 100 µM (inactive)
GI50 (HCT-116): 44.1 µM (inactive)
GI50 (HCT-15): 53.3 µM
GI50 (KM12): 39.7 µM (inactive)
GI50 (M14): 47.3 µM (inactive)
GI50 (MDA-MB-435): 20.7 µM (inactive)
GI50 (MDA-N): 14.1 µM (inactive)
GI50 (NCI-H460): 63.8 µM (inactive)
GI50 (OVCAR-5): > 100 µM (inactive)
GI50 (OVCAR-8): > 100 µM (inactive)
GI50 (SK-MEL-28): > 100 µM (inactive)
GI50 (SK-OV-3): > 100 µM (inactive)
GI50 (SN12C): 78.7 µM (inactive)
GI50 (UACC-257): 74.3 µM (inactive)
GI50 (UACC-62): 52.8 µM (inactive)

C=CCCCCCC(O)C(O)C/C=C\C/C=C\CC (configuration not stated)
GI50 (786-0): > 18.8 µM (inactive)
GI50 (CAKI-1): > 18.8 µM (inactive)
GI50 (HCC 2998): > 18.8 µM (inactive)
GI50 (HCT-116): > 18.8 µM (inactive)
GI50 (HCT-15): > 18.8 µM
GI50 (HL-60): > 7.71 µM (inactive)
GI50 (KM12): > 18.8 µM (inactive)
GI50 (M14): > 18.8 µM (inactive)
GI50 (NCI-H460): 13.5 µM (inactive)
GI50 (NCI-H522): > 18.8 µM (inactive)
GI50 (OVCAR-5): > 18.8 µM (inactive)
GI50 (OVCAR-8): > 18.8 µM (inactive)
GI50 (SK-MEL-28): > 18.8 µM (inactive)
GI50 (SK-OV-3): > 18.8 µM (inactive)
GI50 (SN12C): > 18.8 µM (inactive)
GI50 (SNB-75): > 18.8 µM (inactive)
GI50 (UACC-257): > 18.8 µM (inactive)
GI50 (UACC-62): > 18.8 µM (inactive)

C[N+]1([O-])CCC(O)(C2CC2)CC1 (configuration not stated)
GI50 (786-0): > 100 µM (inactive)
GI50 (CAKI-1): > 100 µM (inactive)
GI50 (HCC 2998): > 100 µM (inactive)
GI50 (HCT-116): > 100 µM (inactive)
GI50 (HCT-15): > 100 µM
GI50 (HL-60): > 100 µM (inactive)
GI50 (KM12): > 100 µM (inactive)
GI50 (M14): > 100 µM (inactive)
GI50 (MDA-MB-435): > 100 µM (inactive)
GI50 (OVCAR-5): > 100 µM (inactive)
GI50 (OVCAR-8): > 100 µM (inactive)
GI50 (SK-MEL-28): 0.0399 µM (active)
GI50 (SK-OV-3): > 100 µM (inactive)
GI50 (SN12C): > 100 µM (inactive)
GI50 (SNB-75): > 100 µM (inactive)
GI50 (UACC-257): > 100 µM (inactive)
GI50 (UACC-62): > 100 µM (inactive)

CCC(=O)NC(Nc1cc(C)on1)(C(F)(F)F)C(F)(F)F
GI50 (786-0): > 100 µM (inactive)
GI50 (CAKI-1): > 100 µM (inactive)
GI50 (HCC 2998): > 100 µM (inactive)
GI50 (HCT-116): > 100 µM (inactive)
GI50 (HCT-15): > 100 µM
GI50 (HL-60): > 100 µM (inactive)
GI50 (KM12): > 100 µM (inactive)
GI50 (M14): > 100 µM (inactive)
GI50 (MDA-MB-435): > 100 µM (inactive)
GI50 (NCI-H460): > 100 µM (inactive)
GI50 (NCI-H522): > 100 µM (inactive)
GI50 (OVCAR-5): > 100 µM (inactive)
GI50 (OVCAR-8): > 100 µM (inactive)
GI50 (SK-MEL-28): > 100 µM (inactive)
GI50 (SK-OV-3): > 100 µM (inactive)
GI50 (SN12C): > 100 µM (inactive)
GI50 (SNB-75): > 100 µM (inactive)
GI50 (UACC-257): > 100 µM (inactive)
GI50 (UACC-62): > 100 µM (inactive)
